Laboratory results reported in US7951405B2 (priority 2004, dated 2011).
“Also recorded” adds a separate entry of the source. Read-outs that look alike come from different tables or passages of the source.

Columns and labels:
[1] = Single-dose pharmacokinetics of erlotinib in non-tumor bearing mice; type: in vivo, female nu/nu athymic mice
Description: (§1) For single-dose pharmacokinetics (PK), blood samples from three mice per time point were collected by cardiac puncture at 5, 15, 30, 60 minutes and 2, 4, 8, 16, 24 hours post-dose. For chronically treated animals, blood samples from two or three mice per time point were collected via the retro-orbital sinus at 1 and 6 hours. Collection tubes contained ethylene diamine tetra-acetic acid (EDTA) as anticoagulant. Samples were stored at −70° C. […] PK parameters were estimated by non-compartmental analysis of the composite data, using the PK evaluation programme WinNonlin PRO® version 3.1 (Pharsight Inc).
Three animals per time point were evaluated for PK data (FIG. 3).

[2] = Chronic-dose plasma and tumor concentrations of erlotinib in tumor-bearing mice; type: in vivo, nu/nu athymic mice
Description: On day 28 post tumor implant, blood (from the retro-orbital sinus) and tumor samples were collected at 1 and 6 hours post dosing. […] Values are means±SD, n=3.
as §1

[3] = type: in vivo
Description: FIG. […]
(§2) Weight loss was calculated as percent change in mean group body weight, using the formula: ((W−W0)/W0)×100 • where ‘W’ represents mean body weight of the treated group at a particular day, and ‘W0’ represents mean body weight of the same group at start of treatment. Maximum weight loss was also calculated using the above formula, giving the maximum percentage of body weight lost at any time in the entire experiment for a particular group. Treatment efficacy was assessed by tumor growth inhibition. Tumour volumes of treated groups were given as percentages of tumor volumes of the control groups (% T/C), using the formula: 100×((T−T0)/(C−C0)) • where ‘T’ represents mean tumor volume of a treated group on a specific day during the experiment, ‘T0’ represented mean tumor volume of the same group on the first day of treatment, C represents mean tumor volume of a control group on a particular day of the experiment, and C0 represents mean tumor volume of the same group on the first day of treatment.

H460a NSCLC xenograft = assay: Tumor growth inhibition in H460a NSCLC xenograft model; type: in vivo, athymic nude mice
Description: (§3) Mice were implanted with H460a NSCLC cells. […] Tumor size was measured 3 times per week. Values are means, n=10.
as §3
(§4) H460a cells (provided by Dr Jack Roth, MD, Anderson) were grown in Dulbecco's Modified Eagle Media (DMEM) supplemented with 10% Foetal Bovine Serum (FBS). A549 cells (American Type Culture Collection [Manassas, Va.] were grown in Roswell Park Memorial Institute medium (RPMI) 1640+10% FBS. The cell concentrations for implant were 1×10^7 cells/0.2 mL for H460a and 7.5×10^6 cells/0.2 mL for A549.
(§5) Cells were suspended in phosphate-buffered saline, and implanted subcutaneously in the right flank of each mouse. Once palpable tumours were established, animals were randomised so that all groups had similar starting mean tumour volumes of 100-150 mm^3. Tumour measurements and mouse weights were taken three times per week. Animals were individually monitored throughout the experiment.
All groups were treated daily for 3 weeks. […]
Weight loss was calculated as percent change in mean group body weight, using the formula: ((W−W0)/W0)×100 • where ‘W’ represents mean body weight of the treated group at a particular day, and ‘W0’ represents mean body weight of the same group at start of treatment. Maximum weight loss was also calculated using the above formula, giving the maximum percentage of body weight lost at any time in the entire experiment for a particular group. Treatment efficacy was assessed by tumor growth inhibition. […]
(§6) Tumor growth inhibition was calculated using the formula: 100−% T/C
(§7) Tumor volume (mm^3) was calculated using the ellipsoid formula: (Dx(d^2))/2 • where ‘D’ represents the large diameter of the tumor, and ‘d’ represents the small diameter. In some cases, tumor regression and/or percentage change in tumor volume was calculated using the formula: ((T−T0)/T0)×100 • where ‘T’ represents mean tumor volume of the treated group at a particular day, and ‘T0’ represents mean tumor volume of the same treated group at the start of treatment.

A549 NSCLC xenograft = type: in vivo
Description: Mice were implanted with A549 NSCLC cells. […] Tumor size was measured 3 times per week. Values are means, n=10.
as §4, §5
All groups were treated daily for 3 weeks.
All groups were treated every 6 days for 3 weeks (a total of three injections).
as §2, §6, §7

[4] = Pathology/necropsy and tumor immunohistochemistry in treated xenograft mice
Description: At necropsy, skin samples were fixed in 10% buffered formalin, embedded in paraffin, sectioned at 5μ and stained with haematoxylin and eosin.
Five mice per treatment from all remaining groups were given a full necropsy at the end of the study.
Tumor samples were fixed by immersion in 10% zinc formalin then processed in a Tissue-Tek® VIP (Sakura) and embedded in paraffin. Sections for immunohistochemistry were cut at 5μ. Pre-immune rabbit or goat serum (Dako Ltd) was used as the negative control. Sections were immersed in Target Retrieval Solution (Dako Ltd) and heated to 94° C. in a steamer (Black & Decker) for 20 minutes. Endogenous peroxidase activity was quenched with 6% H2O2 in methanol for 15 minutes.
For platelet endothelial cell adhesion molecule (PECAM-1, CD31) antigen and EGFR antigen, the sections were incubated overnight at room temperature with a polyclonal goat anti-PECAM-1 IgG (Santa Cruz Biotechnology, Santa Cruz, Calif.) diluted 1:800 in Antibody Diluent (Dako Ltd) or with a polyclonal rabbit anti-EGFR IgG (BioGenex, San Ramon, Calif.) diluted 1:50 in Antibody Diluent (Dako Ltd). Sections were incubated with Vectastain Elite ABC-peroxidase (Vector Laboratories) for 45 minutes at room temperature.
To detect apoptosis, the TUNEL TdT-FragEL™ DNA fragmentation detection kit (Oncogene Research Products, San Diego, Calif.) was used according to the manufacturer's recommendations. For all four antigens, Vector Nova Red (Vector Laboratories) was the final chromogen and haematoxylin the nuclear counterstain.

[5] = cited from earlier work
[6] = erlotinib monotherapy, treated xenografts

SMILES: C#Cc1cccc(Nc2ncnc3cc(OCCOC)c(OCCOC)cc23)c1 [erlotinib, [6,7-bis(2-methoxyethoxy)-4-quinazolin-4-yl]-(3-ethynylphenyl) amine]
- Time of maximum plasma concentration post dose ([1]; 20 and 100 mg/kg single dose by gavage): 0.5 to 1.0 h
- Dose proportionality of exposure (AUC) ([1]; 20 vs 100 mg/kg single dose): dose-proportional
- Mean maximum plasma concentration ([1]; erlotinib 20 mg/kg single dose by gavage): ~9,100 ng/mL
- Mean maximum plasma concentration ([1]; erlotinib 100 mg/kg single dose by gavage): approximately 24,000 ng/mL
- Correlation of tumor concentrations with plasma concentrations ([2]; H460a tumor-bearing mice): correlated well
- Dose dependence of exposure ([2]; ascending oral doses 6.3-150.0 mg/kg, tumor-bearing mice): dose-dependent and more than dose-proportional
- Tolerability ([3]; erlotinib 150 mg/kg for 3 weeks, previous efficacy studies (unpublished observation)): well tolerated
- Toxicity outcome ([3]; erlotinib 200 mg/kg group): marked weight loss and all were euthanized
- Toxicity outcome ([3]; erlotinib 400 mg/kg group): One mouse in the 400 mg/kg group died
- Tumor regressions (H460a NSCLC xenograft; erlotinib monotherapy dose response study): no partial or complete regressions
- Tumor growth inhibition (A549 NSCLC xenograft; erlotinib 25 mg/kg, day 47 post tumor implantation): 25%
- Extent of partial regression (A549 NSCLC xenograft; erlotinib 100 mg/kg): 2%
- Number of partial regressions (A549 NSCLC xenograft; erlotinib 100 mg/kg): one
- Tumor growth inhibition (A549 NSCLC xenograft; erlotinib 100 mg/kg, day 47 post tumor implantation): 93%
- Ki-67 proliferative index in tumor ([4]; erlotinib 1000 mg/kg (so in the source), both NSCLC xenograft tumor models): mild decrease
- Haematology and clinical chemistry parameters ([4]; erlotinib monotherapy): no changes
- Skin lesions (macroscopic) ([4]; erlotinib monotherapy (100 mg/kg/day for 21 days), transient): substantial reddening and crusting of the skin of the muzzle; also recorded: reddened and flaky
- Angiogenesis, microvascular density (MVD) via CD31 staining [4, 6]: no clear effect
- Frequency of apoptosis in tumor cells (TUNEL) [4, 6]: no significant difference

SMILES: N.N.[Cl][Pt][Cl] [cisplatin]
- MTD ([3]; cisplatin every 6 days x3 i.p., athymic nude mice): 6 mg/kg
- Tumor growth inhibition (H460a NSCLC xenograft; cisplatin 1.5 mg/kg i.p. every 6 days): 42%
- Tumor growth inhibition (H460a NSCLC xenograft; cisplatin 6 mg/kg i.p. every 6 days): 81%
- Tumor growth inhibition (A549 NSCLC xenograft; cisplatin 1.5 mg/kg, non-significant): 30%
- Extent of partial regression (A549 NSCLC xenograft; cisplatin 6 mg/kg): 2%
- Number of partial regressions (A549 NSCLC xenograft; cisplatin 6 mg/kg): one
- Tumor growth inhibition (A549 NSCLC xenograft; cisplatin 6 mg/kg, day 47 post tumor implantation): 88%
- MTD ([5]; cisplatin every 4 days x3 i.v. in nude mice (Riccardi 2001)): 4 mg/kg
- MTD ([5]; cisplatin every 6 days x2 i.v. in nude mice (Perez-Soler 2001)): 4 mg/kg
- MTD ([5]; cisplatin every 6 days x3 i.p. in C57/B16 mice (van Moorsel 1999)): 6 mg/kg
- Primary microscopic kidney lesions ([4]; cisplatin alone and in combination, severity dose dependent): tubular necrosis and tubular basophilia
